In US9856237B2, “Pyrazine derivatives” (TEIJIN PHARMA LIMITED, priority 2014, dated 2018):

Experiments:
human URAT1 = target: T1, human URAT1 (Homo sapiens, UniProt Q96S37); test: Test for inhibition of uric acid transport using human URAT1-expressing cells; assay type: cell-based; conditions: HEK 293 cells expressing human URAT1; 14C-labeled uric acid 25 μM; uptake 37° C. for 5 min; read-out: Inhibitory activity (IC50, concentration at which the uric acid transport rate is inhibited by 50%)
T1 construct: Full-length cDNA of human URAT1 (hURAT1); host or cells: HEK 293 cells, stably transfected and selected by Geneticin resistance
T1 sequence (Q96S37 1-553): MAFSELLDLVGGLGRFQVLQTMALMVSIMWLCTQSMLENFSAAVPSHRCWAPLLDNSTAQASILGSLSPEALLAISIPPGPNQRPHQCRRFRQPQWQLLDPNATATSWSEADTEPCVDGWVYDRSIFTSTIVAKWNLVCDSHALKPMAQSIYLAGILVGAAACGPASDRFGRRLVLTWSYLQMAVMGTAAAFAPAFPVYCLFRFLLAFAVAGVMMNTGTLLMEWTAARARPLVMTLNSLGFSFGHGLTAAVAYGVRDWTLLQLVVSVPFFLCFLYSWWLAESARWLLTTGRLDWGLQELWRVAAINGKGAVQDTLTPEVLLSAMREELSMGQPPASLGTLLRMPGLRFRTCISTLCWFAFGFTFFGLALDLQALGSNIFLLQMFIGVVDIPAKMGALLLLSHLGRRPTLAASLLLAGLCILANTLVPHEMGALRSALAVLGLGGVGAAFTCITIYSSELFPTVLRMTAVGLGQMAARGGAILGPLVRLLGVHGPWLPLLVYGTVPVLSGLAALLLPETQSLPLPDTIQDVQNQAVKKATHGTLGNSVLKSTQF
Protocol: Test for Inhibition of Uric Acid Transport Using Human URAT1-Expressing Cells
A test compound was dissolved in DMSO (produced by Sigma) to a concentration of 20 mM and was subsequently used by adjusting the concentration to a desired value for use.
Full-length cDNA of human URAT1 (hURAT1) (produced by OriGene Technologies, Inc., NCBI Reference Sequence: NM-144585) was subcloned into an expression vector, pCMV6-Kan/Neo (produced by OriGene Technologies, Inc.), and human URAT1 genes were transfected into human embryonic kidney-derived cells (HEK 293 cells) by a liposome method using Lipofectamine 2000 (produced by Invitrogen Corporation), whereupon HEK 293 cells expressing human URAT1 genes were selected on the basis of Geneticin resistance. Functional expression of human URAT1 genes was confirmed by using transport of ^14C-labeled uric acid into the cells as an index.
The HEK 293 cells expressing human URAT1 were seeded in a 24-well cell culture dish to a density of 3×10^5 cells/mL/well and were cultured in Dulbecco's modified Eagle's medium (D-MEM medium) containing 10% fetal bovine serum at 37° C. for 2 days. Thereafter, the following test for inhibition of uric acid transport was performed.
After the medium was removed by aspiration from each well, the cells were replaced with a solution obtained by substituting NaCl in Hanks' Balanced Salt Solution (HBSS) with Na gluconate (hereinafter, HBSS/Na-gluconate), and the cells were preincubated at 37° C. for about 10 minutes. After removing the HBSS/Na-gluconate by aspiration, a ^14C-uric acid solution containing various concentrations of the Example compound listed in Table 4 and a radioactive ligand (^14C-labeled uric acid; final concentration 25 μM) was added, and an uptake reaction was carried out by incubating at 37° C. for 5 min. After the reaction, the ^14C-labeled uric acid was removed by aspiration and the cells were washed three times with ice-cooled HBSS. The HEK 293 cells expressing human URAT1 were lysed in a 0.2 mol/L aqueous NaOH solution (hereafter, the cell sample) and sampled from the well. The cell sample and a liquid scintillation cocktail, ULTIMA GOLD (produced by PerkinElmer, Inc.) were mixed, and the radioactivity was measured by a liquid scintillation counter (manufactured by Beckman Coulter, Inc.).
The uric acid transport rate of the Example compound at each concentration (% of control uptake) was calculated relative to the radioactivity (radioactivity in human URAT1 expressing HEK 293 cells without addition of the Example compound (DMSO addition)) showing URAT1-specific uric acid transport as 100%, and the concentration (IC50) of the Example compound at which the uric acid transport rate is inhibited by 50% was determined. In addition, the symbols (*, **, and ***) in the table represent the following inhibitory activity values: • IC50≦0.2 μM: *** • 0.2 μM<IC50≦2 μM: ** • 2 μM<IC50≦20 μM: *

cebus apella = test: Testing drug efficacy in Cebus apella (uric acid excretion rate); assay type: in vivo; conditions: 3 mg/kg to 30 mg/kg in 0.5% methylcellulose, from the nasal cavity to the stomach
Protocol: Testing Drug Efficacy in Cebus Apella A test compound (3 mg/kg to 30 mg/kg) dispersed in a 0.5% methylcellulose solution was administered to cebus apella from the nasal cavity to the stomach using a disposable catheter and a syringe barrel. Blood samples were taken before administration and 30 minutes, 1 hour, 2 hours, 4 hours, 8 hours, 12 hours, and 24 hours after administration; and urine samples were collected for the time intervals of from immediately after to 4 hours after administration, from 4 hours to 8 hours after administration, from 8 hours to 16 hours after administration, and from 16 hours to 24 hours after administration. Concentrations of uric acid and creatinine in the blood and urine samples collected were measured by an automatic analyzer (JEOL Ltd.). Uric acid and creatinine were measured respectively using L-type Wako UA•F (Wako Pure Chemicals Industries, Ltd.) and L-type Creatinine F (Wako Pure Chemicals Industries, Ltd.). Uric acid clearance was calculated from the uric acid concentrations in blood and urine and, similarly, creatinine clearance was calculated from the creatinine concentrations. Based on these values, the uric acid excretion rate was determined according to the following equation: Uric acid excretion rate (%)=(uric acid clearance/creatinine clearance)×100

SMILES | IC50 (human URAT1) [µM] | activity to promote uric acid excretion (cebus apella)
COc1cncc(-c2nc(C)c(C(=O)O)n2Cc2cc(Cl)ccc2Cl)n1 [Compound A5, 1-(2,5-dichlorobenzyl)-2-(6-methoxypyrazin-2-yl)-4-methyl-1H-imidazole-5-carboxylic acid] | ≤ 0.2 | –
Cc1nc(-c2cncc(-c3ccccc3)n2)n(Cc2cc(Cl)ccc2Cl)c1C(=O)O [Compound A4, 1-(2,5-dichlorobenzyl)-4-methyl-2-(6-phenylpyrazin-2-yl)-1H-imidazole-5-carboxylic acid] | ≤ 0.2 | –
Cc1nc(-c2cnccn2)n(Cc2cc(Cl)sc2Cl)c1C(=O)O [Compound A11, 1-((2,5-dichlorothiophene-3-yl)methyl)-4-methyl-2-(pyrazin-2-yl)-1H-imidazole-5-carboxylic acid] | ≤ 0.2 | excellent activity
COc1cccc(F)c1Oc1cncc(-c2nc(C)c(C(=O)O)n2Cc2cc(Cl)ccc2Cl)n1 [Compound A13] | 0.2 to 2 | –
Cc1cncc(-c2nc(C)c(C(=O)O)n2Cc2cc(Cl)sc2Cl)n1 [Compound A12, 1-((2,5-dichlorothiophene-3-yl)methyl)-4-methyl-2-(6-methylpyrazin-2-yl)-1H-imidazole-5-carboxylic acid] | ≤ 0.2 | –
O=C(O)c1ccc(-c2cnccn2)n1Cc1cc(Cl)ccc1Cl [Compound A15, 1-(2,5-dichlorobenzyl)-2-(pyrazin-2-yl)-1H-pyrrole-5-carboxylic acid] | ≤ 0.2 | –
Cc1nc(-c2cncc(C(C)C)n2)n(Cc2cc(Cl)ccc2Cl)c1C(=O)O [Compound A9, 1-(2,5-dichlorobenzyl)-2-(6-isopropylpyrazin-2-yl)-4-methyl-1H-imidazole-5-carboxylic acid] | ≤ 0.2 | –

More lines, main results first:

IC50 (human URAT1) [µM] | SMILES | activity to promote uric acid excretion (cebus apella)
≤ 0.2 | CCc1cncc(-c2nc(C)c(C(=O)O)n2Cc2cc(Cl)ccc2Cl)n1 [Compound A3, 1-(2,5-dichlorobenzyl)-2-(6-ethylpyrazin-2-yl)-4-methyl-1H-imidazole-5-carboxylic acid] | –
≤ 0.2 | Cc1nc(-c2cncc(C3CC3)n2)n(Cc2cc(Cl)ccc2Cl)c1C(=O)O [Compound A10, 2-(6-cyclopropylpyrazin-2-yl)-1-(2,5-dichlorobenzyl)-4-methyl-1H-imidazole-5-carboxylic acid] | –
≤ 0.2 | COc1cccc(F)c1Oc1cncc(-c2nc(C)c(C(=O)O)n2Cc2ccccc2)n1 [Compound A14, 1-benzyl-2-(6-(2-fluoro-6-methoxyphenoxy)pyrazin-2-yl)-4-methyl-1H-imidazole-5-carboxylic acid] | –
≤ 0.2 | Cc1cncc(-c2nc(C)c(C(=O)O)n2Cc2cc(Cl)ccc2Cl)n1 [Compound A2, 1-(2,5-dichlorobenzyl)-4-methyl-2-(6-methylpyrazin-2-yl)-1H-imidazole-5-carboxylic acid] | –
≤ 0.2 | Cc1nc(-c2cncc(C#N)n2)n(Cc2cc(Cl)ccc2Cl)c1C(=O)O [Compound A8, 2-(6-cyanopyrazin-2-yl)-1-(2,5-dichlorobenzyl)-4-methyl-1H-imidazole-5-carboxylic acid] | –
≤ 0.2 | Cc1nc(-c2cnccn2)n(Cc2cc(Cl)ccc2Cl)c1C(=O)O [Compound A1, 1-(2,5-dichlorobenzyl)-4-methyl-2-(pyrazin-2-yl)-1H-imidazole-5-carboxylic acid] | –
≤ 0.2 | CCOc1cncc(-c2nc(C)c(C(=O)O)n2Cc2cc(Cl)ccc2Cl)n1 [Compound A7, 1-(2,5-dichlorobenzyl)-2-(6-ethoxypyrazin-2-yl)-4-methyl-1H-imidazole-5-carboxylic acid] | –
≤ 0.2 | Cc1nc(-c2cncc(Oc3ccccc3)n2)n(Cc2cc(Cl)ccc2Cl)c1C(=O)O [Compound A6, 1-(2,5-dichlorobenzyl)-4-methyl-2-(6-phenoxypyrazin-2-yl)-1H-imidazole-5-carboxylic acid] | –
